From patent US20060141064A1, “Herbal formulation useful as local anesthetic” (priority 2004, published 2006)

Tests used:
guinea pig [1] = experiment: Local anesthetic properties, guinea pig wheal method, topical application (Table 1); format: in vivo; design: key: a positive (+) response is recorded, showing no anesthetic activity; loss in sensation (−); details: 2% w/w, n = 6
guinea pig [2] = experiment: Local anesthetic properties, intradermal wheal method in guinea pigs, intradermal injection (Table 2); format: in vivo; details: 2% w/w, n = 6
Description: Intra Dermal Wheal Method in Guinea Pigs:
The hairs on the back of guinea pigs were shaved. The normal response of the animal with a pinprick on both sides of the back was tested with 0.2 ml of the herbal formulations were injected intradermally on the left side and 0.2 ml of a normal saline (0.9%) was injected on the right side of the back. The sides were demarcated by ink. Six pinpricks were applied at interval of 2 to 3 s. Pinpricks were repeated after every 5 min. Animals showing no squeak response to all the six pinpricks were considered positive to anaesthetic effect.

## CCN(CC)CC(=O)Nc1c(C)cccc1C [Lignocaine]
Guinea pig [1]; 0 min
  Response at 0 minutes after topical application: +
Guinea pig [1]; 5 min
  Response at 5 minutes after topical application: +
Guinea pig [1]; 10 min
  Response at 10 minutes after topical application: −
Guinea pig [1]; 15 min
  Response at 15 minutes after topical application: −
Guinea pig [1]; 20 min
  Response at 20 minutes after topical application: −
Guinea pig [1]; 30 min
  Response at 30 minutes after topical application: −
Guinea pig [1]; 45 min
  Response at 45 minutes after topical application: −
Guinea pig [1]; 60 min
  Response at 60 minutes after topical application: −
Guinea pig [1]; 120 min
  Response at 120 minutes after topical application: −
Guinea pig [2]; 0 min
  Response at 0 minutes after intradermal injection: +
Guinea pig [2]; 5 min
  Response at 5 minutes after intradermal injection: −
Guinea pig [2]; 10 min
  Response at 10 minutes after intradermal injection: −
Guinea pig [2]; 15 min
  Response at 15 minutes after intradermal injection: −
Guinea pig [2]; 20 min
  Response at 20 minutes after intradermal injection: −
Guinea pig [2]; 30 min
  Response at 30 minutes after intradermal injection: −
Guinea pig [2]; 45 min
  Response at 45 minutes after intradermal injection: −
Guinea pig [2]; 60 min
  Response at 60 minutes after intradermal injection: −
